Measurements taken from patent US20250326744A1, “PIPERAZINE DERIVATIVE OR SALT THEREOF, AND PHARMACEUTICAL COMPOSITION” (priority 2022, published 2025).
Structures can show the parent of a compound that is named as a salt.

How the values were obtained:
S-3769 strain = assay: Combinational effect with antibacterial agent against Pseudomonas aeruginosa (Test Examples 2 and 4): S-3769 strain with AMK or GM at 1/4 MIC, EC99; type: cell-based; settings: for EC99, combinational effect with AMK, S-3769 strain / EC99, S-3769 strain, AMK: combined with AMK at 1/4 MIC; for EC99, combinational effect with AMK, S-3769 strain / EC99, combinational effect with GM, S-3769 strain: Test Example 4; for EC99, combinational effect with GM, S-3769 strain / EC99, S-3769 strain, GM: combined with GM at 1/4 MIC; for EC99, S-3769 strain, AMK / EC99, S-3769 strain, GM: Table 52, Test Example 2, 16 to 20 hours culture, OD595
In short: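 P. aeruginosa S-3769 (clinical isolate, MexY overexpressed) grown 16–20 h in CAMHB, 10^4 to 5 CFU/well, with AMK or GM at ¼ MIC plus test compound 0–800 μM. Growth read as OD595; EC99 is the lowest compound concentration giving ≥99% growth inhibition.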

mexB (PA) strain = assay: Combinational effect with antibacterial agent against Pseudomonas aeruginosa (Test Examples 2 and 4): mexB (PA) strain with LVFX, TC or AZT at 1/4 MIC, EC99; type: cell-based; settings: for EC99, combinational effect with AZT, mexB (PA) / EC99, combinational effect with LVFX, mexB (PA) / EC99, combinational effect with TC, mexB (PA): mexB (PA) strain, Test Example 4; for EC99, combinational effect with AZT, mexB (PA) / EC99, mexB (PA), AZT: combined with AZT at 1/4 MIC; for EC99, combinational effect with LVFX, mexB (PA) / EC99, mexB (PA), LVFX: combined with LVFX at 1/4 MIC; for EC99, combinational effect with TC, mexB (PA) / EC99, mexB (PA), TC: combined with TC at 1/4 MIC; for EC99, mexB (PA), AZT / EC99, mexB (PA), LVFX / EC99, mexB (PA), TC: Table 52, Test Example 2, 16 to 20 hours culture, OD595
In short: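 P. aeruginosa mexB (PA) strain, lacking MexCD-OprJ, MexEF-OprN and MexXY and overexpressing MexAB-OprM, grown 16–20 h in CAMHB (10^4–5 CFU/well) with LVFX, TC or AZT at ¼ MIC plus test compound at 0–800 μM. Growth read as OD595; EC99 is the lowest compound concentration giving ≥99% growth inhibition.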

Structure (SMILES) | EC99, combinational effect with AMK, S-3769 strain (S-3769 strain) | EC99, combinational effect with GM, S-3769 strain (S-3769 strain) | EC99, combinational effect with AZT, mexB (PA) (mexB (PA) strain) | EC99, combinational effect with LVFX, mexB (PA) (mexB (PA) strain) | EC99, combinational effect with TC, mexB (PA) (mexB (PA) strain) | EC99, S-3769 strain, AMK (S-3769 strain) | EC99, S-3769 strain, GM (S-3769 strain) | EC99, mexB (PA), AZT (mexB (PA) strain) | EC99, mexB (PA), LVFX (mexB (PA) strain) | EC99, mexB (PA), TC (mexB (PA) strain)
CSc1ccc(F)cc1CN1CCN(C(=O)[C@H](N)C2CCN(CCc3cc(Cl)ccc3-c3ccccc3)CC2)CC1 [Example 530, Hydrobromide of (R)-2-amino-2-(1-(2-(4-chloro-[1,1-biphenyl]-2-yl)ethyl)piperidin-4-yl)-1-(4-(5-fluoro-2-(methylthio)benzyl)piperazin-1-yl)ethan-1-one] | S (EC99≤12.5 μM) | A (12.5 μM<EC99≤25 μM) | B (25 μM<EC99≤100 μM) | S (EC99≤12.5 μM) | S (EC99≤12.5 μM) | – | – | – | – | –
CCSc1cc(F)ccc1CN1CCN(C(=O)[C@H](N)C2CCN(CCc3cc(Cl)ccc3-c3cc(N)cc(F)c3)CC2)CC1 [Example 606, Hydrochloride of (R)-2-amino-2-(1-(2-(3′-amino-4-chloro-5′-fluoro-[1,1-biphenyl]-2-yl)ethyl)piperidin-4-yl)-1-(4-(2-(ethylthio)-4-fluorobenzyl)piperazin-1-yl)ethan-1-one] | B (25 μM<EC99≤100 μM) | B (25 μM<EC99≤100 μM) | S (EC99≤12.5 μM) | S (EC99≤12.5 μM) | S (EC99≤12.5 μM) | – | – | – | – | –
CCOc1c(Cl)ccc(F)c1CN1CCN(C(=O)[C@H](N)C2CCN(CCc3cc(Cl)ccc3-c3ccccc3)CC2)CC1 [Example 9, Hydrobromide of (R)-2-amino-1-(4-(3-chloro-2-ethoxy-6-fluorobenzyl)piperazin-1-yl)-2-(1-(2-(4-chloro-[1,1′-biphenyl]-2-yl)ethyl)piperidin-4-yl) ethan-1-one] | – | – | – | – | – | A (12.5 μM<EC99≤25 μM) | A (12.5 μM<EC99≤25 μM) | B (25 μM<EC99≤100 μM) | C (100 μM<EC99) | B (25 μM<EC99≤100 μM)
CCOc1cccc(F)c1CN1CCN(C(=O)[C@H](N)C2CCN(CCc3cc(Cl)ccc3-c3cc(O)ccc3F)CC2)CC1 [Example 585, (R)-2-amino-2-(1-(2-(4-chloro-2′-fluoro-5′-hydroxy-[1,1′-biphenyl]-2-yl)ethyl)piperidin-4-yl)-1-(4-(2-ethoxy-6-fluorobenzyl)piperazin-1-yl)ethan-1-one] | S (EC99≤12.5 μM) | S (EC99≤12.5 μM) | S (EC99≤12.5 μM) | S (EC99≤12.5 μM) | S (EC99≤12.5 μM) | – | – | – | – | –
CCSc1cc(F)ccc1CN1CCN(C(=O)[C@H](N)C2CCN(CCc3cc(Cl)ccc3-c3cccc(O)c3)CC2)CC1 [Example 593, Hydrochloride of (R)-2-amino-2-(1-(2-(4-chloro-3′-hydroxy-[1,1-biphenyl]-2-yl)ethyl)piperidin-4-yl)-1-(4-(2-(ethylthio)-4-fluorobenzyl)piperazin-1-yl) ethan-1-one] | S (EC99≤12.5 μM) | B (25 μM<EC99≤100 μM) | B (25 μM<EC99≤100 μM) | A (12.5 μM<EC99≤25 μM) | A (12.5 μM<EC99≤25 μM) | – | – | – | – | –
CCSc1ccc(O)cc1CN1CCN(C(=O)[C@H](N)C2CCN(CCc3cc(Cl)ccc3-c3ccccc3)CC2)CC1 [Example 589, (R)-2-amino-2-(1-(2-(4-chloro-[1,1′-biphenyl]-2-yl)ethyl)piperidin-4-yl)-1-(4-(2-(ethylthio)-5-hydroxybenzyl)piperazin-1-yl)ethan-1-one] | S (EC99≤12.5 μM) | S (EC99≤12.5 μM) | S (EC99≤12.5 μM) | S (EC99≤12.5 μM) | S (EC99≤12.5 μM) | – | – | – | – | –
CCOc1ccncc1CN1CCN(C(=O)[C@H](N)C2CCN(CCc3cc(Cl)ccc3-c3ccccc3)CC2)CC1 [Example 512, Hydrobromide of (R)-2-amino-2-(1-(2-(4-chloro-[1,1-biphenyl]-2-yl)ethyl)piperidin-4-yl)-1-(4-((4-ethoxypyridin-3-yl)methyl)piperazin-1-yl)ethan-1-one] | A (12.5 μM<EC99≤25 μM) | A (12.5 μM<EC99≤25 μM) | B (25 μM<EC99≤100 μM) | B (25 μM<EC99≤100 μM) | B (25 μM<EC99≤100 μM) | – | – | – | – | –
CCOc1cccc(F)c1CN1CCN(C(=O)[C@H](N)C2CCN(CCc3ccccc3-c3ccccc3)CC2)CC1 [Example 109, hydrochloride of (R)-2-(1-(2-([1,1′-biphenyl]-2-yl)ethyl)piperidin-4-yl)-2-amino-1-(4-(2-ethoxy-6-fluorobenzyl)piperazin-1-yl)ethan-1-one] | – | – | – | – | – | 4 µM | A (12.5 μM<EC99≤25 μM) | B (25 μM<EC99≤100 μM) | C (100 μM<EC99) | B (25 μM<EC99≤100 μM)
CCOc1cccc(F)c1CN1CCN(C(=O)[C@H](N)C2CCN(CCc3cc(Cl)ccc3-c3cnccc3Cl)CC2)CC1 [Example 91, Hydrobromide of (R)-2-amino-2-(1-(5-chloro-2-(4-chloropyridin-3-yl)phenethyl)piperidin-4-yl)-1-(4-(2-ethoxy-6-fluorobenzyl)piperazin-1-yl) ethan-1-one] | – | – | – | – | – | B (25 μM<EC99≤100 μM) | B (25 μM<EC99≤100 μM) | B (25 μM<EC99≤100 μM) | C (100 μM<EC99) | B (25 μM<EC99≤100 μM)
CCOc1cccc(F)c1CN1CCN(C(=O)[C@H](N)C2CCN(CCc3cc(Cl)ccc3-c3ccncc3)CC2)CC1 [Example 74, Hydrobromide of (R)-2-amino-2-(1-(5-chloro-2-(pyridin-4-yl)phenethyl)piperidin-4-yl)-1-(4-(2-ethoxy-6-fluorobenzyl)piperazin-1-yl)ethan-1-one] | – | – | – | – | – | S (EC99≤12.5 μM) | A (12.5 μM<EC99≤25 μM) | C (100 μM<EC99) | C (100 μM<EC99) | C (100 μM<EC99)
N[C@@H](C(=O)N1CCN(Cc2ccccc2C2CC2)CC1)C1CCN(CCc2cc(Cl)ccc2-c2ccccc2)CC1 [Example 507, Hydrobromide of (R)-2-amino-2-(1-(2-(4-chloro-[1,1-biphenyl]-2-yl)ethyl)piperidin-4-yl)-1-(4-(2-cyclopropylbenzyl)piperazin-1-yl)ethan-1-one] | B (25 μM<EC99≤100 μM) | B (25 μM<EC99≤100 μM) | B (25 μM<EC99≤100 μM) | B (25 μM<EC99≤100 μM) | B (25 μM<EC99≤100 μM) | – | – | – | – | –
CCOc1cccc(F)c1CN1CCN(C(=O)[C@H](N)C2CCN(CCc3cc(Cl)ccc3-c3c(O)cccc3F)CC2)CC1 [Example 578, Hydrochloride of (2R)-2-amino-2-(1-(2-(4-chloro-2′-fluoro-6′-hydroxy-[1,1-biphenyl]-2-yl)ethyl)piperidin-4-yl)-1-(4-(2-ethoxy-6-fluorobenzyl)piperazin-1-yl) ethan-1-one] | B (25 μM<EC99≤100 μM) | B (25 μM<EC99≤100 μM) | B (25 μM<EC99≤100 μM) | A (12.5 μM<EC99≤25 μM) | B (25 μM<EC99≤100 μM) | – | – | – | – | –
CCOc1cccc(F)c1CN1CCN(C(=O)[C@H](N)C2CCN(CCc3cc(Cl)ccc3-c3cc(N)cc(F)c3)CC2)CC1 [Example 558, Hydrobromide of (R)-2-amino-2-(1-(2-(3′-amino-4-chloro-5′-fluoro-[1,1-biphenyl]-2-yl)ethyl)piperidin-4-yl)-1-(4-(2-ethoxy-6-fluorobenzyl)piperazin-1-yl)ethan-1-one] | S (EC99≤12.5 μM) | S (EC99≤12.5 μM) | A (12.5 μM<EC99≤25 μM) | S (EC99≤12.5 μM) | A (12.5 μM<EC99≤25 μM) | – | – | – | – | –
